From PMC4176390 (Journal of Natural Products, 2014)

Tests used:
brevenal binding site [1] = experiment: Fluorescent-ligand competition; parameters: species or system rat; conditions: for displacement of BODIPY FL-brevenal from synaptosomes (in words): BODIPY FL-brevenal 10 nM, competitors 1 pM to 10 μM
fish = conditions: cited from earlier work
VSSCs = conditions: cited from earlier work
[2] = tested on: voltage-sensitive sodium channels (VSSCs); conditions: cited from earlier work
brevenal binding site [3] = experiment: Radioligand; conditions: read-out: Ki: radioligand assay; [3H]-brevenol, rat brain synaptosomes, mean ± SEM
sheep = conditions: cited from earlier work

Molecule: CCN1C[C@]2(COC)[C@H](O)C[C@H](OC)[C@@]34[C@@H]5C[C@@]6(O)[C@H](OC(=O)c7ccccc7)[C@@H]5[C@@](OC(C)=O)([C@@H]([C@H](OC)[C@H]23)[C@@H]14)[C@@H](O)[C@@H]6OC [aconitine]
- displacement of BODIPY FL-brevenal from synaptosomes (in words) (brevenal binding site [1]): none of these ligands were able to displace

Molecule: C=C/C=C\CC[C@H]1O[C@H]2CC[C@@]3(C)O[C@H]4[C@@H](O)C[C@@]5(C)O[C@@H](CC/C=C(C)/C(C)=C/C=O)[C@@H](C)C[C@H]5O[C@@H]4C[C@@H]3O[C@@H]2CC[C@@]1(C)O [brevenal]
- toxicity to fish (fish): nontoxic at micromolar concentrations
- effect on VSSCs in patch-clamp experiments (VSSCs): does not appear to have any effect
- displacement of tritiated PbTx from synaptosomes [2]: competitively displace
- Ki (brevenal binding site [3]): 149 ± 30 nM
- displacement of BODIPY FL-brevenal from synaptosomes (in words) (brevenal binding site [1]): competed for binding to synaptosomes
- Ki (brevenal binding site [1]; read-out: Ki: fluorescent-ligand assay, BODIPY FL-brevenal 10 nM as ligand, rat brain synaptosomes, mean ± SEM): 170 ± 31 nM
- mucociliary transport in sheep (sheep): increases mucociliary transport

Molecule: CC1(C)[C@H](C(=O)O[C@H](C#N)c2cccc(Oc3ccccc3)c2)[C@@H]1C=C(Br)Br [deltamethrin]
- displacement of BODIPY FL-brevenal from synaptosomes (in words) (brevenal binding site [1]): none of these ligands were able to displace

Molecule: COc1ccc(C(=O)O[C@H]2CC[C@@]3(C)[C@@H]4CC[C@H]5[C@]6(O)C[C@H](O)[C@@]7(O)[C@@H](CN8C[C@@H](C)CC[C@H]8[C@@]7(C)O)[C@]6(O)C[C@@]53O[C@]24O)cc1OC [veratridine]
- displacement of BODIPY FL-brevenal from synaptosomes (in words) (brevenal binding site [1]): none of these ligands were able to displace

Molecule: PbTx-9
- displacement of BODIPY FL-brevenal from synaptosomes (in words) (brevenal binding site [1]): None of the naturally occurring PbTx analogues were able to displace
